In patent publication US6428823B1, “Biologically active aqueous fraction of an extract obtained from a mangrove plant Salvadora persica L” (Council of Scientific & Industrial Research, priority 2001, dated 2002):

Tested on: mammalian tissues
Assay: pharmacological screening of purified compounds in mammalian tissues
Conditions: result in words
From the text: The invention further relates to methods of screening pharmacological activities of the said compounds in mammalian tissues.
vii) testing the pure compounds by using methods of pharmacology, and
Pharmacological Testing of Pure Compounds

SMILES | biological activity shown by the extract
CCCCCCCCCCCCCCCC(=O)OC [Methyl palmitate] | maintained
C=C(C)[C@@H]1CC[C@]2(CO)CC[C@]3(C)[C@H](CC[C@@H]4[C@@]5(C)CC[C@H](O)C(C)(C)[C@@H]5CC[C@]43C)[C@@H]12 [Betulin] | maintained
